Laboratory results as given in patent US9976141B2, “Compositions and methods for inhibiting gene expression of Hif2alpha” (Arrowhead Madison Inc., priority 2015, dated 2018).
Strand notation (5' to 3'): a small letter for the sugar, then the base; units joined by * are phosphorothioate-linked, units joined directly phosphodiester-linked; [ ] holds rarer units or linkages, { } end groups; capitals alone tell only the bases. d = 2'-deoxy (DNA); m = 2'-O-methyl; f = 2'-fluoro

Test system: human EPAS1 (Hif2α) cDNA in psiCHECK2 (Renilla luciferase/EPAS1 fusion mRNA) in Hep3B cells
Assay: Efficacy screen of Hif2α RNAi triggers in vitro, dual-luciferase reporter assay (1 nM and 0.1 nM)
Format: cell-based
Settings: Hep3B cells co-transfected with EPAS1-psiCHECK2, Renilla luciferase normalized to firefly luciferase
From the text: Candidate sequences were identified by in silico analysis and screened as chemically modified canonical siRNAs in vitro. For screening purposes, the human EPAS1 (Hif2α) cDNA sequence (accession #NM 001430) was synthesized and cloned (DNA 2.0, Menlo Park, Calif.) into a commercially-available reporter-based screening plasmid, psiCHECK2 (Promega, Madison, Wis.) which generated a Renilla luciferase/EPAS1 fusion mRNA. For RNAi trigger efficacy evaluation, Hep3B cells, a human hepatocellular carcinoma line, were plated at 10,000 cells per well in 96-well format. Each of the 187 EPAS1 RNAi triggers, in two subsets, was co-transfected at two concentrations, 1 nM and 0.1 nM, with 25 ng EPAS1-psiCHECK2 plasmid DNA per well and 0.2 μL LipoFectamine 2000 (Life Technologies) per well. Gene knockdown was determined by measuring Renilla luciferase levels normalized to the levels of constitutively-expressed firefly luciferase, also present on the psiCHECK-2 plasmid, using the Dual Luciferase Reporter Assay (Promega, Madison, Wis.) Table 5.

Row | Substance | Relative Rluc-Hif2α (0.1 nM RNAi trigger) | Relative Rluc-Hif2α (1 nM RNAi trigger)
1 | 2264 (sense fCmAfGmAfAmCfUmGfAmUfUmGfGmUfUmAfCmCfAdT; antisense dTfGmGfUmAfAmCfCmAfAmUfCmAfGmUfUmCfUmGdT*dT; siRNA) [compound 2264] | 0.381 ± 0.023 | 0.183 ± 0.019
2 | 2265 (sense fAmGfAmAfCmUfGmAfUmUfGmGfUmUfAmCfCmAfAdT; antisense dTfUmGfGmUfAmAfCmCfAmAfUmCfAmGfUmUfCmUdT*dT; siRNA) [compound 2265] | 0.448 ± 0.042 | 0.186 ± 0.045
3 | 2266 (sense fCmUfGmAfUmUfGmGfUmUfAmCfCmAfCmCfCmUfAdT; antisense dTfAmGfGmGfUmGfGmUfAmAfCmCfAmAfUmCfAmGdT*dT; siRNA) [compound 2266] | 0.808 ± 0.062 | 0.368 ± 0.046
4 | 2267 (sense fUmUfGmGfCmCfGmCfUmCfAmGfCmCfUmAfUmGfAdT; antisense dTfCmAfUmAfGmGfCmUfGmAfGmCfGmGfCmCfAmAdT*dT; siRNA) [compound 2267] | 1.029 ± 0.104 | 0.651 ± 0.049
5 | 2268 (sense fUmAfUmGfAmAfUmUfCmUfAmCfCmAfUmGfCmGfAdT; antisense dTfCmGfCmAfUmGfGmUfAmGfAmAfUmUfCmAfUmAdT*dT; siRNA) [compound 2268] | 0.409 ± 0.023 | 0.210 ± 0.037
6 | 2269 (sense fAmUfGmAfAmUfUmCfUmAfCmCfAmUfGmCfGmCfAdT; antisense dTfGmCfGmCfAmUfGmGfUmAfGmAfAmUfUmCfAmUdT*dT; siRNA) [compound 2269] | 0.530 ± 0.097 | 0.302 ± 0.080
7 | 2270 (sense fUmGfAmAfUmUfCmUfAmCfCmAfUmGfCmGfCmUfAdT; antisense dTfAmGfCmGfCmAfUmGfGmUfAmGfAmAfUmUfCmAdT*dT; siRNA) [compound 2270] | 0.658 ± 0.149 | 0.613 ± 0.147
8 | 2271 (sense fGmAfAmUfUmCfUmAfCmCfAmUfGmCfGmCfUmAfAdT; antisense dTfUmAfGmCfGmCfAmUfGmGfUmAfGmAfAmUfUmCdT*dT; siRNA) [compound 2271] | 1.056 ± 0.291 | 0.930 ± 0.094
9 | 2272 (sense fAmAfUmUfCmUfAmCfCmAfUmGfCmGfCmUfAmGfAdT; antisense dTfCmUfAmGfCmGfCmAfUmGfGmUfAmGfAmAfUmUdT*dT; siRNA) [compound 2272] | 1.028 ± 0.281 | 0.864 ± 0.197
10 | 2273 (sense fUmCfUmAfCmCfAmUfGmCfGmCfUmAfGmAfCmUfAdT; antisense dTfAmGfUmCfUmAfGmCfGmCfAmUfGmGfUmAfGmAdT*dT; siRNA) [compound 2273] | 0.574 ± 0.033 | 0.588 ± 0.057
11 | 2274 (sense fAmUfGmCfGmCfUmAfGmAfCmUfCmCfGmAfGmAfAdT; antisense dTfUmCfUmCfGmGfAmGfUmCfUmAfGmCfGmCfAmUdT*dT; siRNA) [compound 2274] | 0.870 ± 0.108 | 0.506 ± 0.074
12 | 2275 (sense fUmGfCmGfCmUfAmGfAmCfUmCfCmGfAmGfAmAfAdT; antisense dTfUmUfCmUfCmGfGmAfGmUfCmUfAmGfCmGfCmAdT*dT; siRNA) [compound 2275] | 0.515 ± 0.264 | 0.464 ± 0.048
13 | 2276 (sense fGmUfAmAfGmUfGmGfCmCfAmGfUmAfCmCfGmGfAdT; antisense dTfCmCfGmGfUmAfCmUfGmGfCmCfAmCfUmUfAmCdT*dT; siRNA) [compound 2276] | 0.543 ± 0.029 | 0.330 ± 0.080
14 | 2277 (sense fUmAfAmGfUmGfGmCfCmAfGmUfAmCfCmGfGmAfAdT; antisense dTfUmCfCmGfGmUfAmCfUmGfGmCfCmAfCmUfUmAdT*dT; siRNA) [compound 2277] | 0.625 ± 0.384 | 0.702 ± 0.091
